Source: PMC8253220, “Molecular design, synthesis and in vitro biological evaluation of thienopyrimidine–hydroxamic acids as chimeric kinase HDAC inhibitors: a challenging approach to combat cancer” (Journal of Enzyme Inhibition and Medicinal Chemistry, 2021)
“And” between values parts separate entries of the source, which are not always exact repeats. Equal values may be shown once.

How the values were obtained:
EGFR = EGFR (Homo sapiens, UniProt P00533); test: In vitro EGFR tyrosine kinase inhibitory assay (Z'-LYTE, SelectScreen); assay type: biochemical; conditions: 10 µM single dose
Sequence of EGFR (P00533 25-1210): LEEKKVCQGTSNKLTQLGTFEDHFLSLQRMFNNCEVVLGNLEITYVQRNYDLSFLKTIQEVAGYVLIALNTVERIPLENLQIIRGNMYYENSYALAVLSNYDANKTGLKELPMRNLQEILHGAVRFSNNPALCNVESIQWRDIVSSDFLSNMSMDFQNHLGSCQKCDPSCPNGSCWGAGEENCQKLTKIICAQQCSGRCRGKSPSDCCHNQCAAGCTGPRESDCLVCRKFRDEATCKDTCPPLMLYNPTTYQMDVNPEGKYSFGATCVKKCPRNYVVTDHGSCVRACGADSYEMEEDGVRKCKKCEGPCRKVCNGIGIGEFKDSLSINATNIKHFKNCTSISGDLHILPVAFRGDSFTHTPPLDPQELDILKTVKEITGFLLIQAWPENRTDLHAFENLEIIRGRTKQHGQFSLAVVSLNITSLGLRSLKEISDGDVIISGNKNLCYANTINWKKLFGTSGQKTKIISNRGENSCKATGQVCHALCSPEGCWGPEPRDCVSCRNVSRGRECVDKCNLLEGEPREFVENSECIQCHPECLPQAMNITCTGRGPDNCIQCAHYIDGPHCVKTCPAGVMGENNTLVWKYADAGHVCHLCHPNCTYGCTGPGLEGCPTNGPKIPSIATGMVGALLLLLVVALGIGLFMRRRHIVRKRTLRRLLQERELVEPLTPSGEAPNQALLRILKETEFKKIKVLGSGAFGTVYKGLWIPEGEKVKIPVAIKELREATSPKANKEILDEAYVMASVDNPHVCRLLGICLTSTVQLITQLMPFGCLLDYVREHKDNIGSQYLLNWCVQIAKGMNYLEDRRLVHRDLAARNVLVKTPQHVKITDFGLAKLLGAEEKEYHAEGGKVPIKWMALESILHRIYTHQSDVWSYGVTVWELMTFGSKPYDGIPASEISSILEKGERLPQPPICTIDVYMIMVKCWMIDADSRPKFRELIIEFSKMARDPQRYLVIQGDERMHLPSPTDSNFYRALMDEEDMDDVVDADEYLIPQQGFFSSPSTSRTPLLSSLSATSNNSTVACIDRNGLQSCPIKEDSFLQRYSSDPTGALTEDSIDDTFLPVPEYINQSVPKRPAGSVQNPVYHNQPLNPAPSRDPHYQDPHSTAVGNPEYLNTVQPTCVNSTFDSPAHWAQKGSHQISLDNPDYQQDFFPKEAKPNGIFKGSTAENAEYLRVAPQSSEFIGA
Outline: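 Z'-LYTE fluorescence coupled-enzyme format, read-out based on differential protease cleavage of phosphorylated vs non-phosphorylated peptide. Compounds screened at 10 µM single dose for % inhibition, then selected ones tested at 0.1 nM–10 µM for IC50 by curve fitting.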

ACHN = test: NCI one-dose screen; assay type: cell-based, human; conditions: Renal ACHN, 10 µM single dose
Outline: (§1)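 At 10 μM, a single concentration, compounds were evaluated for antiproliferative effect in the NCI 60-line screen, with growth expressed relative to untreated control cells.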

COLO 205 = test: NCI one-dose screen; assay type: cell-based, human; conditions: Colon COLO 205, 10 µM single dose
Outline: as §1

EKVX = test: NCI one-dose screen; assay type: cell-based, human; conditions: NSCLC EKVX, 10 µM single dose
Outline: (§2)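 In vitro antiproliferative testing: NCI-60 panel, initial single dose 10 μM, inhibition % derived from percent growth of treated versus untreated control cells.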

HCC-2998 = test: NCI one-dose screen; assay type: cell-based, human; conditions: Colon HCC-2998, 10 µM single dose
Outline: as §1

HOP-62 = test: NCI one-dose screen; assay type: cell-based, human; conditions: NSCLC HOP-62, 10 µM single dose
Outline: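 Compounds were tested at a single dose of 10 μM across the full NCI-60 cell line panel. Growth was expressed as percent growth relative to untreated control cells, reported as percent inhibition.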

IGROV1 = test: NCI one-dose screen; assay type: cell-based, human; conditions: Ovarian IGROV1, 10 µM single dose
Outline: as §1

K-562 = test: NCI one-dose screen; assay type: cell-based, human; conditions: Leukemia K-562, 10 µM single dose
Outline: as §1

LOX IMVI = test: NCI one-dose screen; assay type: cell-based, human; conditions: Melanoma LOX IMVI, 10 µM single dose
Outline: as §1

MALME-3M = test: NCI one-dose screen; assay type: cell-based, human; conditions: Melanoma MALME-3M, 10 µM single dose
Outline: as §1

MCF7 = test: NCI one-dose screen; assay type: cell-based, human; conditions: Breast MCF7, 10 µM single dose
Outline: (§3)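 Growth of treated cells is compared with untreated controls to give percent inhibition. Compounds are applied once at 10 μM across the NCI 60 cancer cell panel.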

MDA-MB-231/ATCC = test: NCI one-dose screen; assay type: cell-based, human; conditions: Breast MDA-MB-231/ATCC, 10 µM single dose
Outline: as §1

MDA-MB-468 = test: NCI one-dose screen; assay type: cell-based, human; conditions: Breast MDA-MB-468, 10 µM single dose
Outline: as §3

NCI-H226 = test: NCI one-dose screen; assay type: cell-based, human; conditions: NSCLC NCI-H226, 10 µM single dose
Outline: as §2

NCI-H460 = test: NCI one-dose screen; assay type: cell-based, human; conditions: NSCLC NCI-H460, 10 µM single dose
Outline: as §1

OVCAR-5 = test: NCI one-dose screen; assay type: cell-based, human; conditions: Ovarian OVCAR-5, 10 µM single dose
Outline: as §1

PC-3 = test: NCI one-dose screen; assay type: cell-based, human; conditions: Prostate PC-3, 10 µM single dose
Outline: as §1

RXF 393 = test: NCI one-dose screen; assay type: cell-based, human; conditions: Renal RXF 393, 10 µM single dose
Outline: as §1

SK-MEL-5 = test: NCI one-dose screen; assay type: cell-based, human; conditions: Melanoma SK-MEL-5, 10 µM single dose
Outline: as §1

SK-OV-3 = test: NCI one-dose screen; assay type: cell-based, human; conditions: Ovarian SK-OV-3, 10 µM single dose
Outline: as §1

SN12C = test: NCI one-dose screen; assay type: cell-based, human; conditions: Renal SN12C, 10 µM single dose
Outline: as §1

SW-620 = test: NCI one-dose screen; assay type: cell-based, human; conditions: Colon SW-620, 10 µM single dose
Outline: as §1

T-47D = test: NCI one-dose screen; assay type: cell-based, human; conditions: Breast T-47D, 10 µM single dose
Outline: as §1

UACC-257 = test: NCI one-dose screen; assay type: cell-based, human; conditions: Melanoma UACC-257, 10 µM single dose
Outline: as §1

full NCI 60 cell panel = test: NCI one-dose screen, whole panel statistics; assay type: cell-based, human; conditions: 1.00E-5 Molar
Outline: as §1

Cc1c(C(=O)NO)sc2ncnc(Nc3ccc(F)c(Cl)c3)c12 [Compound 15d, 4–(3-chloro-4-fluorophenylamino)-N-hydroxy-5-methylthieno[2,3-d]pyrimidine-6-carboxamide]
inhibition at 10 µM (EGFR): 97% | Growth Percent (ACHN): 97.6% and 97.62% | Growth Percent (COLO 205): 112.3% and 112.34% | Growth Percent (EKVX): 88.0% and 88.08% | Growth Percent (HCC-2998): 102.4% and 102.42% | Growth Percent (HOP-62): 99.3% | Growth Percent (IGROV1): 103.9% and 103.95% | Growth Percent (K-562): 105.3% and 105.38% | Growth Percent (LOX IMVI): 101.3% and 101.32% | Growth Percent (MALME-3M): 116.1% and 116.15% | Growth Percent (MCF7): 93.8% and 93.88% | Growth Percent (MDA-MB-231/ATCC): 97.2% and 97.25% | Growth Percent (MDA-MB-468): 85.6% and 85.68% | Growth Percent (NCI-H226): 103.2% and 103.24% | Growth Percent (NCI-H460): 101.5% and 101.54% | Growth Percent (OVCAR-5): 101.3% and 101.35% | Growth Percent (PC-3): 110.4% and 110.42% | Growth Percent (RXF 393): 100.3% and 100.37% | Growth Percent (SK-MEL-5): 100.5% and 100.59% | Growth Percent (SK-OV-3): 114.4% and 114.45% | Growth Percent (SN12C): 100.1% and 100.14% | Growth Percent (SW-620): 108.2% and 108.22% | Growth Percent (T-47D): 95.4% and 95.46% | Growth Percent (UACC-257): 109.9% and 109.91% | Delta (one dose mean graph) (full NCI 60 cell panel): 24.43% | Range (one dose mean graph) (full NCI 60 cell panel): 43.45% | Mean Growth Percent (full NCI 60 cell panel; mean over panel): 101.50% | melting point: 320 °C
